Data published in patent publication US10435399B2, “HDAC6 inhibitory heterocyclic compound” (TAKEDA PHARMACEUTICAL COMPANY LIMITED, priority 2017, dated 2019).

Target: T1, HDAC6 enzyme (Homo sapiens, UniProt Q9UBN7)
T1 construct: transducing full length HDAC6 gene into Sf-9 insect cells; GST; purchased SignalChem; host or cells: Sf-9 insect cells
T1 sequence (Q9UBN7 1-1215): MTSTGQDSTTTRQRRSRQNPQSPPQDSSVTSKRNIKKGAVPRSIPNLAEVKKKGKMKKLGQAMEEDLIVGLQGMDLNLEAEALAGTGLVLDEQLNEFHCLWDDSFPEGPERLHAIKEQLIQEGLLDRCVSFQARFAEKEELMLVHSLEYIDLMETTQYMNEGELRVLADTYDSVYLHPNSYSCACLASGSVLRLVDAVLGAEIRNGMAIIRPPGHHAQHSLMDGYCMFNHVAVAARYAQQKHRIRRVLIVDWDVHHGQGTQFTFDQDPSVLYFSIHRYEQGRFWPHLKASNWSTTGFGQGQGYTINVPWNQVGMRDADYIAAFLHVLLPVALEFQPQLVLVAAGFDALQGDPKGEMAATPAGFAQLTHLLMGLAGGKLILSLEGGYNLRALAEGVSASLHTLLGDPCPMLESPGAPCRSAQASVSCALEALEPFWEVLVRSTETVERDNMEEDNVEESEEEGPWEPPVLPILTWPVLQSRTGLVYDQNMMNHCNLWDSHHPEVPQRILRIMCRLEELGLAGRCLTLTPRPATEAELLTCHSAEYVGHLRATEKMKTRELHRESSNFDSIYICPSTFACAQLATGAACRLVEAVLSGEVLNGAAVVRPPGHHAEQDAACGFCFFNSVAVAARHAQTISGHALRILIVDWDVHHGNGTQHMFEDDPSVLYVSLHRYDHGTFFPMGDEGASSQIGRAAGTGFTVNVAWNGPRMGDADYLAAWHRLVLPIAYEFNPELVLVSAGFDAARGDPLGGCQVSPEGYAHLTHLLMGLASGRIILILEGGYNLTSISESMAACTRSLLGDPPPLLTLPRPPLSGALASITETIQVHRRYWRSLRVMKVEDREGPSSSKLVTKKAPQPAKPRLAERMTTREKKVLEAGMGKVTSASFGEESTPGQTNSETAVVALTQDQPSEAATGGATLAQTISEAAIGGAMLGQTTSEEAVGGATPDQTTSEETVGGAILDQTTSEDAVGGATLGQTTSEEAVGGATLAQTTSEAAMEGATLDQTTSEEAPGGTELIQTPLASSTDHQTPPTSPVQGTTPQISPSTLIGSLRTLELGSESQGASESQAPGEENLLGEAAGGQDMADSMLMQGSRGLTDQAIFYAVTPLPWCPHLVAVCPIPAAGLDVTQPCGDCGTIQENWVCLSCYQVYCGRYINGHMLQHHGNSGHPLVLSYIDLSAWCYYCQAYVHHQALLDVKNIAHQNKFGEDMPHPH
Assay: HDAC6 enzyme inhibitory activity (HDAC-Glo I/II Assay kit)
Assay type: biochemical
Conditions: 10 μM; wells without enzyme = 100% inhibition; read-out: HDAC6 inhibitory rate (%) (10 μM)
In short: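 Sf-9-derived GST-purified full-length HDAC6 + cpd, 60 min RT, 24 mM Tris pH 7.5/0.6 mM glutathione/0.01% Tween-20; add HDAC-Glo substrate-developer, 20 min RT; luminescence. No-enzyme = 100% inhibition.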

| inhibition at 10 µM [%] | SMILES |
| --- | --- |
| 101 | O=C1c2cc(-c3nnc(C(F)F)o3)ccc2CN1c1ccc(F)cc1-c1cnn(C(F)F)c1 [Example 385, 6-(5-(difluoro-methyl)-1,3,4-oxadiazol-2-yl)-2-(2-(1-(difluoro-methyl)-1H-pyrazol-4-yl)-4-fluorophenyl) isoindolin-1-one] |
| 101 | O=C1c2cc(-c3nnc(C(F)F)o3)ccc2CN1c1ccc(F)cc1-c1cccc(F)c1 [Example 386, 2-(3′,5-difluoro-biphenyl-2-yl)-6-(5-(difluoro-methyl)-1,3,4-oxadiazol-2-yl) isoindolin-1-one] |
| 101 | O=C1c2cc(-c3nnc(C(F)F)o3)ccc2CN1c1cccnc1-c1cnn(C(F)F)c1 [Example 387, 6-(5-(difluoro-methyl)-1,3,4-oxadiazol-2-yl)-2-(2-(1-(difluoro-methyl)-1H-pyrazol-4-yl)pyridin-3-yl) isoindolin-1-one] |
| 101 | Cn1nc(C(F)(F)F)cc1-c1cc(F)ccc1N1Cc2c(F)cc(-c3nnc(C(F)F)o3)cc2C1=O [Example 388, 6-(5-(difluoro-methyl)-1,3,4-oxadiazol-2-yl)-4-fluoro-2-(4-fluoro-2-(1-methyl-3-(trifluoro-methyl)-1H-pyrazol-5-yl)phenyl) isoindolin-1-one] |
| 101 | Cn1nc(C(F)(F)F)cc1-c1cc(F)ccc1N1Cc2ccc(-c3nnc(C(F)F)o3)cc2C1=O [Example 389, 6-(5-(difluoro-methyl)-1,3,4-oxadiazol-2-yl)-2-(4-fluoro-2-(1-methyl-3-(trifluoro-methyl)-1H-pyrazol-5-yl)phenyl) isoindolin-1-one] |
| 100 | O=C1c2cc(-c3nnc(C(F)F)o3)cc(F)c2CN1c1ccccc1-c1cnn(C(F)F)c1 [Example 390, 6-(5-(difluoro-methyl)-1,3,4-oxadiazol-2-yl)-2-(2-(1-(difluoro-methyl)-1H-pyrazol-4-yl)phenyl)-4-fluoroisoindolin-1-one] |
| 100 | N#Cc1cccc(-c2ncccc2N2Cc3ccc(-c4nnc(C(F)F)o4)cc3C2=O)c1 [Example 391, 3-(3-(6-(5-(difluoromethyl)-1,3,4-oxadiazol-2-yl)-1-oxo-1,3-dihydro-2H-isoindol-2-yl)pyridin-2-yl) benzonitrile] |
| 99 | Cn1cc(-c2ccccc2N2Cc3c(F)cc(-c4nnc(C(F)F)o4)cc3C2=O)cn1 [Example 392, 6-(5-(difluoro-methyl)-1,3,4-oxadiazol-2-yl)-4-fluoro-2-(2-(1-methyl-1H-pyrazol-4-yl)phenyl) isoindolin-1-one] |
| 99 | O=C1c2cc(-c3nnc(C(F)F)o3)cc(F)c2CN1c1ccccc1-c1cccc(F)c1 [Example 393, 6-(5-(difluoro-methyl)-1,3,4-oxadiazol-2-yl)-4-fluoro-2-(3′-fluorobiphenyl-2-yl)isoindolin-1-one] |
| 99 | Cn1nc(C(F)(F)F)cc1-c1ccccc1N1Cc2c(F)cc(-c3nnc(C(F)F)o3)cc2C1=O [Example 394, 6-(5-(difluoro-methyl)-1,3,4-oxadiazol-2-yl)-4-fluoro-2-(2-(1-methyl-3-(trifluoro-methyl)-1H-pyrazol-5-yl)phenyl) isoindolin-1-one] |
| 99 | O=C1c2cc(-c3nnc(C(F)F)o3)cnc2CN1Cc1cccc(OC(F)F)c1 [Example 395, 6-(3-(difluoro-methoxy)benzyl)-3-(5-(difluoro-methyl)-1,3,4-oxadiazol-2-yl)-6,7-dihydro-5H-pyrrolo [3,4-b]pyridin-5-one] |
| 101 | O=C1c2cc(-c3nnc(C(F)F)o3)ccc2CN1c1cccc(F)c1-c1cnn(C(F)F)c1 [Example 396, 6-(5-(difluoro-methyl)-1,3,4-oxadiazol-2-yl)-2-(2-(1-(difluoromethyl)-1H-pyrazol-4-yl)-3-fluorophenyl) isoindolin-1-one] |
| 100 | O=C1c2cc(-c3nnc(C(F)F)o3)ccc2CN1c1cccc(F)c1-c1cccc(Cl)c1 [Example 397, 2-(3′-chloro-6-fluorobiphenyl-2-yl)-6-(5-(difluoro-methyl)-1,3,4-oxadiazol-2-yl) isoindolin-1-one] |
| 102 | O=C1c2cc(-c3nnc(C(F)F)o3)ccc2CN1c1cccc(F)c1-c1cccc(F)c1 [Example 398, 2-(3′,6-difluoro-biphenyl-2-yl)-6-(5-(difluoro-methyl)-1,3,4-oxadiazol-2-yl) isoindolin-1-one] |
| 101 | O=C1c2cc(-c3nnc(C(F)F)o3)ccc2CN1[C@@H]1CCOC[C@H]1NCC(F)(F)F [Example 399, 6-(5-(difluoromethyl)-1,3,4-oxadiazol-2-yl)-2-((3S,4R)-3-((2,2,2-trifluoroethyl)amino)tetrahydro-2H-pyran-4-yl)isoindolin-1-one] |
| 99 | O=C1c2cc(-c3nnc(C(F)F)o3)cnc2CN1[C@@H]1CCOC[C@H]1NCC(F)(F)F [Example 400, 3-(5-(difluoro-methyl)-1,3,4-oxadiazol-2-yl)-6-((3S,4R)-3-((2,2,2-trifluoro-ethyl)amino)tetrahydro-2H-pyran-4-yl)-6,7-dihydro-5H-pyrrolo[3,4-b] pyridin-5-one] |
| 99 | N#Cc1cccc(-c2c(Cl)cccc2N2Cc3ccc(-c4nnc(C(F)F)o4)cc3C2=O)c1 [Example 401, 2′-chloro-6′-(6-(5-(difluoro-methyl)-1,3,4-oxadiazol-2-yl)-1-oxo-1,3-dihydro-2H-isoindol-2-yl) biphenyl-3-carbonitrile] |
| 100 | O=C1c2cc(-c3nnc(C(F)F)o3)ccc2CN1c1cccc(Cl)c1-c1cnn(C(F)F)c1 [Example 402, 2-(3-chloro-2-(1-(difluoro-methyl)-1H-pyrazol-4-yl)phenyl)-6-(5-(difluoro-methyl)-1,3,4-oxadiazol-2-yl) isoindolin-1-one] |
| 102 | Cn1cc(-c2c(Cl)cccc2N2Cc3ccc(-c4nnc(C(F)F)o4)cc3C2=O)cn1 [Example 403, 2-(3-chloro-2-(1-methyl-1H-pyrazol-4-yl)phenyl)-6-(5-(difluoro-methyl)-1,3,4-oxadiazol-2-yl) isoindolin-1-one] |
| 100 | O=C1c2cc(-c3nnc(C(F)F)o3)ccc2CN1c1cccc(Cl)c1-c1cccc(F)c1 [Example 404, 2-(6-chloro-3′-fluoro-biphenyl-2-yl)-6-(5-(difluoro-methyl)-1,3,4-oxadiazol-2-yl) isoindolin-1-one] |
| 101 | O=C1c2cc(-c3nnc(C(F)F)o3)ccc2CN1c1ccc(Cl)cc1-c1cnn(C(F)F)c1 [Example 405, 2-(4-chloro-2-(1-(difluoro-methyl)-1H-pyrazol-4-yl)phenyl)-6-(5-(difluoro-methyl)-1,3,4-oxadiazol-2-yl) isoindolin-1-one] |
| 100 | O=C1c2cc(-c3nnc(C(F)F)o3)cnc2CN1c1ccc(F)cc1Br [Example 406, 6-(2-bromo-4-fluorophenyl)-3-(5-(difluoromethyl)-1,3,4-oxadiazol-2-yl)-6,7-dihydro-5H-pyrrolo[3,4-b]pyridin-5-one] |
| 99 | N#Cc1cccc(-c2cc(F)ccc2N2Cc3ncc(-c4nnc(C(F)F)o4)cc3C2=O)c1 [Example 407, 2′-(3-(5-(difluoro-methyl)-1,3,4-oxadiazol-2-yl)-5-oxo-5,7-dihydro-6H-pyrrolo[3,4-b]pyridin-6-yl)-5′-fluoro-biphenyl-3-carbonitrile] |
| 99 | O=C1c2cc(-c3nnc(C(F)F)o3)cnc2CN1c1ccc(F)cc1-c1cnn(C(F)F)c1 [Example 408, 3-(5-(difluoro-methyl)-1,3,4-oxadiazol-2-yl)-6-(2-(1-(difluoro-methyl)-1H-pyrazol-4-yl)-4-fluorophenyl)-6,7-dihydro-5H-pyrrolo[3,4-b] pyridin-5-one] |
| 99 | O=C1c2cc(-c3nnc(C(F)F)o3)cnc2CN1c1ccc(F)cc1-c1cccc(F)c1 [Example 409, 6-(3′,5-difluoro-biphenyl-2-yl)-3-(5-(difluoro-methyl)-1,3,4-oxadiazol-2-yl)-6,7-dihydro-5H-pyrrolo [3,4-b]pyridin-5-one] |
